How the values were obtained:
[1] = test system: Rab7, Cdc42 and Ras; assay: Association and dissociation time course of BODIPY-FL GTP (real-time flow cytometry); type: binding
Experimental: GTPases were bound to glutathione-coated microsphere beads overnight and unbound GTPases were removed by washing. The association and dissociation of BODIPY^- FL GTP was analyzed with the Accuri C6 flow cytometer in real-time. The initial 30 s set the baseline fluorescence. […] When the fluorescence plateau was reached, GTP at 50 μM was added to induce BODIPY^- FL GTP dissociation. […] All the concentrations given are the final concentrations.

[2] = test system: EGFR degradation regulated by Rab GTPases, SCC-12F cells; assay: EGFR degradation in SCC-12F cells; type: cell-based; details: EGF 20 nM, 0-120 min, versus DMSO
Experimental: SCC-12F cells were seeded in 12-well plates at 0.12 x 10^6 cells/well and allowed to attach overnight. On the day of the experiment, the cells were starved in serum free medium containing 25 μg/mL cycloheximide for 2 h before compounds at different concentrations were added. The cells were treated with compound or DMSO for 0.5 h followed by the addition of ligand EGF at 20 nM. At time 0, 15, 30, 60, and 120 min, the suspension medium was removed and the cells were quickly washed with cold PBS and frozen at -80°C. For electrophoresis and blotting, CellLyticM Cell Lysis buffer containing protease inhibitor cocktails was added to the frozen cells and the protein concentrations were quantified using the Bradford assay. For SDS-PAGE, 10 μg of protein was loaded on each lane. After transblotting, the nitrocellulose membrane was probed with Anti-EGFR and Anti-actin primary antibody and secondary goat anti-rabbit IgG antibody with conjugated peroxidase. Actin served as a loading control. After adding the substrate SuperSignal West Dura, specific band signal was detected with ChemiDoc XRS+ molecular imager and the intensity was quantified using Image Lab software. Experiments were carried out either in duplicate and repeated or in triplicate. Results are given as the ratios of EGFR/actin at time t and EGFR/actin at time 0.

[3] = target: H-Ras (Homo sapiens, UniProt P01112); assay: Multiplex bead-based flow cytometry dose-response of fluorescent guanine nucleotide binding
Experimental: Briefly, individual GST-GTPases were separately attached to glutathione microsphere beads that were labeled with varying intensity of red fluorescent dye, and subsequently combined. The buffer contains 30 mM HEPES (pH 7.2), 150 mM KCl, 20 mM NaCl, 0.1% BSA, 1 mM DTT, 1 mM EDTA and 0.1% NP-40. […] To study whether the compounds are slow binders, BODIPY^- FL GTP was added either immediately or 2 h after compound addition. […] The curves were fitted to the sigmoidal dose-response equation using GraphPad Prism. Percent response was calculated as the ratio of (sample MCF–negative control MCF) / (positive control MCF–negative control MCF).

[4] = target: Cdc42 (Homo sapiens, UniProt P60953); assay: GTPase and effector interaction assay (PAK-PBD beads), HeLa cell lysates; details: HeLa cells, 10 μM, 2 h, EGF 10 ng/mL 2 min
Experimental: GST effector chimeras consisting of the minimal GTPase binding domain were p21-activated kinase p21 binding domain (PAK-PBD) for Cdc42, Raf1 Ras-binding domain (Raf1-RBD) for Ras, and Rab-interacting lysosomal protein (RILP) for Rab7 binding measurements.
Superdex peptide beads (13 μm, from GE Healthcare) derivatized with GSH were coated with effector proteins to saturation. […] The effector-coated glutathione beads (20,000 beads/assay) were incubated with 200 μL cell lysate from a single treated well for 1 h at 4°C. […] The bead associated fluorescence representing bound GTPase was quantified on an Accuri C6 flow cytometer.

[5] = test system: SCC-12F cells; assay: Cytotoxicity (CellTiter-Glo); type: cell-based; details: up to 100 µM; 24 h and 3 h
Experimental: (§1) S3 Fig. Cytotoxicity of 1 and analogues. […]
(§2) µM over the experimental time frame. Compounds tested in the U937ΔST cells for 24 h (A) and (B), and for 1 h (C). Compounds tested in SCC-12F cells for 24 h (D) and (E), and for 3 h (F-I). Data are reported as ratios of luminescence to that of the DMSO treated control.
(§3) (1 picture or pasted object on this page, not shown here)
(§4) FITC-LDV dissociation assay
(§5) The dissociation kinetics of FITC-LDV was measured by flow cytometry following the addition of 100-fold excess of non-fluorescent LDV. (The kinetic constants obtained are the same within experimental error whether adding 100-fold or 200-fold excess non-fluorescent LDV). The fluorescence decrease was recorded (see B in S2 Fig.). For the resting state, when a fluorescence plateau was reached after the addition of LDV-FITC, LDV was added to the cell suspension. For the high affinity state, when the fluorescence reached equilibrium after the sequential addition of LDV-FITC and N-formyl peptide, LDV was added. To study the effect of a compound, LDV was added at the time point when the fluorescence approached a […]. The fluorescence decrease curve was fitted to Equation 2 to obtain the dissociation rate constant koff. […] Therefore the binding affinity can also be estimated by comparing the measured koff. […]

[6] = test system: U937 FPRΔST cells; assay: Cytotoxicity (CellTiter-Glo); type: cell-based; details: up to 100 µM; 24 h and 1 h
Experimental: as §1, §2, §3, §4, §5

[7] = target: RhoA (Homo sapiens, UniProt P61586); assay: Multiplex bead-based flow cytometry dose-response of fluorescent guanine nucleotide binding; details: EC50 RhoA
Experimental: Briefly, individual GST-GTPases were separately attached to glutathione microsphere beads that were labeled with varying intensity of red fluorescent dye, and subsequently combined. The buffer contains 30 mM HEPES (pH 7.2), 150 mM KCl, 20 mM NaCl, 0.1% BSA, 1 mM DTT, 1 mM EDTA and 0.1% NP-40. For Rho A and Rac1, 1 mM EDTA was replaced with 1 mM MgCl2 to stabilize the protein. […] To study whether the compounds are slow binders, BODIPY^- FL GTP was added either immediately or 2 h after compound addition. […] The curves were fitted to the sigmoidal dose-response equation using GraphPad Prism. Percent response was calculated as the ratio of (sample MCF–negative control MCF) / (positive control MCF–negative control MCF).

[8] = test system: EGFR degradation, HeLa cells overexpressing Rab7 wild type; assay: EGFR degradation in Rab7 overexpressing HeLa cells; type: cell-based; details: HeLa cells overexpressing Rab7, 100 μM, 3 h, 0-180 min
Experimental: The EGFR degradation assay in HeLa cells was carried out in a similar way to that in SCC-12F cells but with modifications. […] Cell lysates were prepared at various time points and immunoblotted for total EGFR while actin served as a loading control. Experiments were carried out in triplicate.

Chain of H-Ras (P01112 whole entry): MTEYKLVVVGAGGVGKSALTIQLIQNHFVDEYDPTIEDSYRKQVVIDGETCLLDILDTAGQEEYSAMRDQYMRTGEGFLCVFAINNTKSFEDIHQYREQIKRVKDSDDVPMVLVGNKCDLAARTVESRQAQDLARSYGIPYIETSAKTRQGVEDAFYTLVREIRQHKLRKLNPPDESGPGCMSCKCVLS
Chain of RhoA (P61586 whole entry): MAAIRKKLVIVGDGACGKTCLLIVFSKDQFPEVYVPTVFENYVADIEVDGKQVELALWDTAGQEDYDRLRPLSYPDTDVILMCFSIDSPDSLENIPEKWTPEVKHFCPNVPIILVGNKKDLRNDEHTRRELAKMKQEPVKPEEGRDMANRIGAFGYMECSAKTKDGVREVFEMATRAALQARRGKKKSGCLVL
Chain of Cdc42 (P60953 whole entry): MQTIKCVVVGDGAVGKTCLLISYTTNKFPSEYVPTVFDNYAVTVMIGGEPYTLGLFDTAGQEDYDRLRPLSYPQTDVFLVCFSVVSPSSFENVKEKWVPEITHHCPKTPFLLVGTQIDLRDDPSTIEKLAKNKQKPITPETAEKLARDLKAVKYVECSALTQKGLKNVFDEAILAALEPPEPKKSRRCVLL

CC1(C)Cc2c(sc(NC(=S)NC(=O)c3ccccc3)c2C(=O)O)CO1 [Compound 1]
covalent bond formation with GTPases / reversibility ([1]; 50 μM overnight, extensive washing): did not form a covalent bond
dissociation of pre-bound BODIPY-FL GTP ([1]; compound 50 μM added at plateau): able to induce dissociation
binding of BODIPY-FL GTP in the presence of compound ([1]; compound 50 μM, BODIPY-FL GTP 100 nM): decreased
EGFR degradation [2]: delayed EGFR degradation
EC50 ([3]; EC50 H-Ras, BODIPY-FL GTP binding, 2 h at 4°C): 160 ± 160 nM
EC50 ([3]; EC50 H-Ras, concentration dependence on BODIPY-FL GDP): 240 nM
EC50 ([3]; EC50 Ras, with 2 h incubation before BODIPY-FL GTP): 100 ± 3.5 nM
EC50 ([3]; EC50 Ras, without incubation before BODIPY-FL GTP): 130 ± 2.6 nM
level of active Cdc42 after EGF stimulation [4]: below the basal levels
toxicity [5]: did not show toxicity
toxicity [6]: did not show toxicity
EC50 ([7]; BODIPY-FL GTP binding, 2 h at 4°C, 1 mM MgCl2): 62 ± 49 nM
EC50 ([7]; concentration dependence on BODIPY-FL GDP): 100 nM
EGFR degradation [8]: delayed EGFR degradation
